Measured values as given in US8372811B2, “Composition for treating retinopathy or glaucoma comprising thrombin derived peptides” (Eyegene, Inc., priority 2007, dated 2013).
Entries after “also recorded” stand apart in the source; their conditions may differ. Non-standard residues stand in square brackets, D forms with d. No end group written: not given here.

Tested on: mouse retinal angiogenesis
Assay: Mouse model for inducing retinal angiogenesis using oxygen partial pressure (75% oxygen, then normal 20%); FITC-dextran fluorescence microscopy of retina
Format: in vivo
Conditions: intraperitoneally; for retinal blood vessels observed (Example 2): FIG. 4; for retinal blood vessels observed (Example 2) / retinal blood vessels observed (Example 3): dose not given; for effect compared between polypeptides SEQ ID NOs: 1, 2 and SEQ ID NO: 3 (Example 2): FIG. 4 versus FIG. 2; for retinal blood vessels observed (Example 3): FIG. 2 and FIG. 5
Protocol: For this purpose, a mouse was kept for 5 days under a high oxygen environment with a constant 75% oxygen partial pressure 7 days after the mouse was born in an apparatus that can adjust an oxygen partial pressure, and then kept under a 20% oxygen pressure which is a normal oxygen partial pressure. […] In order to observe the blood vessels, 50 mg of FITC-dextran having a molecular weight of 2×10^6 was dissolved in 1 ml of saline, and the resultant solution was injected through the left ventricle. The mouse eyeball was extracted immediately after the injection. The extracted eyeball was washed with saline, fixed with 1% paraformaldehyde for 4 to 24 hours, and then a lens was removed from the eyeball. Then, the resultant mouse retina was evenly spread over a glass slide, and the glass slide was sealed with glycerine-gelatin, and then observed using a fluorescence microscope. The degree on abnormal vessel, avascular lesion and vascular leakage caused by the retinopathy was digitalized and the retinopathy score was compared.

Row | Substance | retinal blood vessels observed (Example 2) | effect compared between polypeptides SEQ ID NOs: 1, 2 and SEQ ID NO: 3 (Example 2) | effect compared with TP508 (SEQ ID NO: 3) (Example 3) | retinal blood vessels observed (Example 3)
1 | Cyclo(-Arg-Gly-Asp-D-Phe-Val) (cyclo(RGD[dF]V)) [SEQ ID NO: 1] | normal angiogenesis is induced but abnormal angiogenesis is suppressed; also recorded: the abnormal angiogenesis was decreased and the normal blood vessels were observed | the same advantageous effect |  | 
2 | DEGKRGDGDACEGDS [SEQ ID NO: 6, smaller peptide than the TP508; chemical synthesis] |  |  | had a similar effect as the TP508 | normal angiogenesis is induced but abnormal angiogenesis is suppressed and the vascular leakage is decreased; also recorded: the abnormal angiogenesis, avascular lesion and vascular leakage were decreased and the normal blood vessels were observed
3 | Thrombin [SEQ ID NO: 4] |  |  | had a similar effect as the TP508 | normal angiogenesis is induced but abnormal angiogenesis is suppressed and the vascular leakage is decreased; also recorded: the abnormal angiogenesis, avascular lesion and vascular leakage were decreased and the normal blood vessels were observed
4 | H-Gly-Phe-Gly-Arg-Gly-Asp-Ser-Pro-Cys-Ala-OH (H-GFGRGDSPCA-OH) [SEQ ID NO: 2] | normal angiogenesis is induced but abnormal angiogenesis is suppressed; also recorded: the abnormal angiogenesis was decreased and the normal blood vessels were observed | the same advantageous effect |  | 
